Laboratory results taken from ChEMBL document CHEMBL3714712, “Thieno [2,3-c]pyrazoles for use as potassium channel inhibitors” (2013).

target: T1, Kir3.1/Kir3.4 (Rattus norvegicus, UniProt P48548+P63251); assay: Inhibition of rat Kir3.1/Kir3.4 expressed in HEK293 cells assessed as reduction in depolarizing voltage step-induced recombinant G-protein activated inward rectifier current by whole cell patch clamp assay; type: cell-based
T1 sequence (P63251 whole entry): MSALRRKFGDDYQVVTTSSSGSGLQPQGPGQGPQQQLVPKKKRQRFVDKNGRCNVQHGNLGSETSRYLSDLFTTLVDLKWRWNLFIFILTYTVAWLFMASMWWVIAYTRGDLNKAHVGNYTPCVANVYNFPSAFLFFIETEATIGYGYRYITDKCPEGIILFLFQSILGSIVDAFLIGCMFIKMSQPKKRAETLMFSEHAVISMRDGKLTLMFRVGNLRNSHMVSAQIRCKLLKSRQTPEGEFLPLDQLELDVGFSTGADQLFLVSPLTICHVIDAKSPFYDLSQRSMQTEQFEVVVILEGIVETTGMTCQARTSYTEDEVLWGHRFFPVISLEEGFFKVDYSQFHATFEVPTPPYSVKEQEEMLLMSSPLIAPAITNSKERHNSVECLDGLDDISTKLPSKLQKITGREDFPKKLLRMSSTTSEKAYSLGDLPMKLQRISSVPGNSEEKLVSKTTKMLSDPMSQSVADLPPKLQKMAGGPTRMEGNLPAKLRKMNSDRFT
T1 sequence (P48548 whole entry): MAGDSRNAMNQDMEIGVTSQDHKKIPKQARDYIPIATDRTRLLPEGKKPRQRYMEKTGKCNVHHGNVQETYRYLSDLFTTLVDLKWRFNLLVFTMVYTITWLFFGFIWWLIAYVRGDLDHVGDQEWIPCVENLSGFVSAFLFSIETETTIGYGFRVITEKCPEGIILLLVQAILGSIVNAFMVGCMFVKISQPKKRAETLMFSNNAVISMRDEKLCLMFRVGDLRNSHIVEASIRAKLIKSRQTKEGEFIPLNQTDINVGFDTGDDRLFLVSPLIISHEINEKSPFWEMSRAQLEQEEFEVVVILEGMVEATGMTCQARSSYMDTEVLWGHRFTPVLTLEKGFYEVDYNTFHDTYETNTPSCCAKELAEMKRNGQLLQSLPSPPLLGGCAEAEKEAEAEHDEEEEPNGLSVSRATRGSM

Point of comparison: `CN(C)C(=O)c1sc2c(c(N3CCC(COCCN4CCCC4)CC3)nn2C)c1-c1ccccc1`, IC50 500 nM. Against it:
- Fc1ccc(-c2csc3[nH]nc(N4CC5CC4CC5OCCN4CCCC4)c23)cc1 (stereo not given) — lower, < 500 nM
- CC(=O)n1nc(N2CC3CC2CC3OCCN2CCCC2)c2c(-c3ccc(F)cc3)csc21 (stereo not given) — lower, < 500 nM
- c1ccc(-c2csc3[nH]nc(N4CCC(COCCN5CCCC5)C4)c23)cc1 (stereo not given) — lower, < 500 nM
- CS(=O)(=O)n1nc(N2CCC(COCCN3CCCC3)CC2)c2c(-c3ccccc3)csc21 — lower, < 500 nM
- Cn1nc(N2CCC(COCCN3CCCC3)CC2)c2c(-c3ccccc3)csc21 — lower, < 500 nM
- CC(=O)n1nc(N2CCC(COCCN3CCCC3)CC2)c2c(-c3ccccc3)csc21 — lower, < 500 nM
- CC(C)NC1CC2CCC(C1)N2c1n[nH]c2scc(-c3ccccc3)c12 (stereo not given) — the same, 500 nM
- c1ccc(-c2csc3[nH]nc(N4C5CCC4CC(NC4CCC4)C5)c23)cc1 (stereo not given) — lower, < 500 nM
- c1ccc(-c2csc3[nH]nc(N4C5CCC4CC(OCCN4CCCC4)C5)c23)cc1 (stereo not given) — lower, < 500 nM
- c1ccc(-c2csc3[nH]nc(N4CCC(COCCN5CCCC5)CC4)c23)cc1 — lower, < 500 nM
- c1ccc(-c2csc3[nH]nc(N4CCCC(COCCN5CCCC5)C4)c23)cc1 (stereo not given) — lower, < 500 nM
- CS(=O)(=O)n1nc(N2CC3CC2CC3OCCN2CCCC2)c2c(-c3ccc(F)cc3)csc21 (stereo not given) — lower, < 500 nM
- CC(=O)n1nc(N2CCCC(COCCN3CCCC3)C2)c2c(-c3ccccc3)csc21 (stereo not given) — lower, < 500 nM
- CC(=O)n1nc(N2CCC(COCCN3CCCC3)C2)c2c(-c3ccccc3)csc21 (stereo not given) — lower, < 500 nM
- CNC(=O)c1sc2[nH]nc(N3CCC(COCCN4CCCC4)CC3)c2c1-c1ccccc1 — lower, < 500 nM
- c1ccc(-c2csc3[nH]nc(N4C5CCC4CC(N4CCC4)C5)c23)cc1 (stereo not given) — the same, 500 nM
- N#Cc1sc2[nH]nc(N3CCC(COCCN4CCCC4)CC3)c2c1-c1ccccc1 — lower, < 500 nM
- c1ccc(-c2csc3[nH]nc(N4C5CCC4CC(COCCN4CCCC4)C5)c23)cc1 (stereo not given) — lower, < 500 nM
- CC(C)NC(=O)c1sc2[nH]nc(N3CCC(COCCN4CCCC4)CC3)c2c1-c1ccccc1 — lower, < 500 nM
- CC(=O)n1nc(N2C3CCC2CC(OCCN2CCCC2)C3)c2c(-c3ccccc3)csc21 (stereo not given) — lower, < 500 nM
- CN(C)C(=O)c1sc2[nH]nc(N3CCC(COCCN4CCCC4)CC3)c2c1-c1ccccc1 — the same, 500 nM
- c1ccc(-c2csc3[nH]nc(N4CC5CC4CC5OCCN4CCCC4)c23)cc1 (stereo not given) — lower, < 500 nM
- CC(=O)n1nc(N2CC3CC2CC3OCCN2CCCC2)c2c(-c3ccccc3)csc21 (stereo not given) — lower, < 500 nM
- Brc1sc2[nH]nc(N3CC4CC3CC4OCCN3CCCC3)c2c1-c1ccccc1 (stereo not given) — lower, < 500 nM
